Reference: US6784137B2, “6-aryl-4-aminopicolinates and their use as herbicides” (Dow AgroSciences LLC, priority 2001, dated 2004)
Where two headings read alike, the source gives them in different places.

Experiments:
[1] = system: Yellow nutsedge (Cyperus esculentus); assay: Postemergence herbicidal activity, greenhouse spray; type: in vivo; conditions: Cyperus, post-emergence, 336 h, visual score after 2 weeks, read-out: Post-emergent % control CYPES; for pest or weed control at 500 ppm: rate 500 ppm; for pest or weed control at 125 ppm: rate 125 ppm
Summary of the method: (§1)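 Postemergence application by compressed-air atomizer ([…]) onto plants at the 1-2 true leaf stage; rates set by serial dilution of acetone:DMSO stock into the spray carrier. Plants were kept in a greenhouse with ~15 hr photoperiod and sub-irrigated.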

[2] = system: Lambsquarter (Chenopodium album); assay: as above; type: in vivo; conditions: Chenopodium album, post-emergence, 336 h, visual score after 2 weeks, read-out: Post-emergent % control CHEAL; for pest or weed control at 500 ppm: rate 500 ppm; for pest or weed control at 125 ppm: rate 125 ppm
Summary of the method: as §1

[3] = system: Barnyardgrass (Echinochloa crus-galli); assay: as above; type: in vivo; conditions: Echinochloa crus-galli, post-emergence, 336 h, visual score after 2 weeks, read-out: Post-emergent % control ECHCG; for pest or weed control at 500 ppm: rate 500 ppm; for pest or weed control at 125 ppm: rate 125 ppm
Summary of the method: as §1

[4] = system: Cocklebur (Xanthium strumarium); assay: as above; type: in vivo; conditions: Xanthium strumarium, post-emergence, 336 h, visual score after 2 weeks, read-out: Post-emergent % control XANST; for pest or weed control at 500 ppm: rate 500 ppm, 0 no injury, 100 complete kill; for pest or weed control at 125 ppm: rate 125 ppm
Summary of the method: as §1

[5] = system: Lambsquarter (Chenopodium album); assay: Preemergence herbicidal activity, soil spray; type: in vivo; conditions: Chenopodium album, pre-emergence, 504 h, Table 5, visual score after 3 weeks, read-out: Pre-emergent % control CHEAL; for pest or weed control at 140 ppm: rate 140 ppm
Summary of the method: (§2)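 Test species were planted first, then the soil of each pot was sprayed with compound solutions of known concentration made in water containing 0.1% Tween 155 from acetone–DMSO stocks. The growth matrix was a 70:30 loam and sand blend with pH near 8.1.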

[6] = system: Giant Foxtail (Setaria faberi); assay: Preemergence herbicidal activity, soil spray; type: in vivo; conditions: Setaria faberi, pre-emergence, 504 h, Table 5, visual score after 3 weeks, read-out: Pre-emergent % control SETFA; for pest or weed control at 140 ppm: rate 140 ppm
Summary of the method: as §2

[7] = system: Pigweed (redroot) (Amaranthus retroflexus); assay: Preemergence herbicidal activity, soil spray; type: in vivo; conditions: Amaranthus retroflexus, pre-emergence, 504 h, Table 5, visual score after 3 weeks, read-out: Pre-emergent % control AMARE; for pest or weed control at 140 ppm: rate 140 ppm
Summary of the method: as §2

[8] = system: Crabgrass(large) (Digitaria sanguinalis); assay: Preemergence herbicidal activity, soil spray; type: in vivo; conditions: Digitaria sanguinalis, pre-emergence, 504 h, Table 5, visual score after 3 weeks, read-out: Pre-emergent % control DIGSA; for pest or weed control at 140 ppm: rate 140 ppm
Summary of the method: as §2

Structure (SMILES)	melting point	pest or weed control at 500 ppm ([1]; Table 1) [%]	pest or weed control at 500 ppm ([2]; Table 1) [%]	pest or weed control at 500 ppm ([3]; Table 1) [%]	pest or weed control at 500 ppm ([4]; Table 1) [%]	pest or weed control at 140 ppm [5] [%]	pest or weed control at 140 ppm [6] [%]	pest or weed control at 140 ppm [7] [%]	pest or weed control at 140 ppm [8] [%]	pest or weed control at 125 ppm ([1]; Table 2) [%]	pest or weed control at 125 ppm ([2]; Table 2) [%]	pest or weed control at 125 ppm ([3]; Table 2) [%]	pest or weed control at 125 ppm ([4]; Table 2) [%]	also measured
Nc1cc(-c2cccc(Cl)c2)nc(C(=O)O)c1Cl [Compound 143, 4-Amino-3-chloro-6-(3-chlorophenyl)pyridine-2-carboxylic acid]	171 °C	40	100	70	100									pest or weed control at 560 ppm ([5]; rate 560 ppm, 100 complete kill or no germination): 100%; pest or weed control at 560 ppm ([6]; rate 560 ppm): 100%; pest or weed control at 560 ppm ([7]; rate 560 ppm): 100%; pest or weed control at 560 ppm ([8]; rate 560 ppm): 100%
Cc1cc(-c2cc(N)c(Cl)c(C(=O)O)n2)ccc1Cl [Compound 149, 4-Amino-3-chloro-6-(4-chloro-3-methylphenyl)pyridine-2-carboxylic acid]	190 to 191 °C	100	100	95	100	100	100	100	100					
Nc1cc(-c2ccc(Cl)c(Cl)c2)nc(C(=O)O)c1Cl [Compound 150, 4-Amino-3-chloro-6-(3,4-dichlorophenyl)pyridine-2-carboxylic acid]	185 to 186 °C	95	100	95	100	100	100	100	90					
Nc1cc(-c2ccc(F)c(Cl)c2)nc(C(=O)O)c1Cl [Compound 151, 4-Amino-3-chloro-6-(3-chloro-4-fluorophenyl)pyridine-2-carboxylic acid]	183 to 184 °C	85	100	100	100	100	100	100	100	90	100	85	100	
Nc1cc(-c2ccc(C(F)(F)F)cc2)nc(C(=O)O)c1Cl [Compound 152, 4-Amino-3-chloro-6-[4-(trifluoromethyl)phenyl]pyridine-2-carboxylic acid]	175 to 176 °C					100	100	95	100					pest or weed control at 125 ppm ([1]; Table 1): 95%; pest or weed control at 125 ppm ([2]; Table 1): 100%; pest or weed control at 125 ppm ([3]; Table 1): 90%; pest or weed control at 125 ppm ([4]; Table 1): 100%
Nc1cc(-c2ccc(Cl)cc2)nc(C(=O)O)c1Cl [Compound 154, 4-Amino-3-chloro-6-(4-chlorophenyl)pyridine-2-carboxylic acid]	165 °C	100	100	100	100	100	100	100	100	90	100	70	100	
Cc1ccc(-c2cc(N)c(Cl)c(C(=O)O)n2)c(F)c1 [Compound 158, 4-Amino-3-chloro-6-(2-fluoro-4-methylphenyl)pyridine-2-carboxylic acid]	187 to 189 °C	70	100	95	100	100	100	100	98					
Cc1ccc(-c2nc(C(=O)O)c(Cl)c(N)c2F)cc1 [Compound 163, 4-Amino-3-chloro-5-fluoro-6-(4-methylphenyl)pyridine-2-carboxylic acid]	145 to 148 °C (dec.)					100	95	98	100	70	90	70	100	pest or weed control at 250 ppm ([1]; Table 1, rate 250 ppm): 70%; pest or weed control at 250 ppm ([2]; Table 1, rate 250 ppm): 95%; pest or weed control at 250 ppm ([3]; Table 1, rate 250 ppm): 70%; pest or weed control at 250 ppm ([4]; Table 1, rate 250 ppm): 100%
Nc1cc(-c2ccc(Cl)cc2F)nc(C(=O)O)c1Cl [Compound 168, 4-Amino-3-chloro-6-(4-chloro-2-fluorophenyl)pyridine-2-carboxylic acid]	162 to 163 °C	90	100	85	100	100	100	100	100					
CCc1ccc(-c2cc(N)c(Cl)c(C(=O)O)n2)cc1 [Compound 175, 4-Amino-3-chloro-6-(4-ethylphenyl)pyridine-2-carboxylic acid]	152 °C	0	99	80	100	100	95	95	100					
Nc1cc(-c2ccc(Cl)c(F)c2)nc(C(=O)O)c1Cl [Compound 181, 4-Amino-3-chloro-6-(4-chloro-3-fluorophenyl)pyridine-2-carboxylic acid]	156 to 157 °C	100	100	100	100	100	100	100	100	85	100	70	100	
Nc1c(F)c(-c2ccc(Cl)cc2F)nc(C(=O)O)c1Cl [Compound 189, 4-Amino-3-chloro-5-fluoro-6-(4-chloro-2-fluorophenyl)pyridine-2-carboxylic acid]	154 to 155 °C					100	100	100	100	90	90	90	90	
